Assay results: US5294553A, “Method for the gravimetric determination of oil and grease” (priority 1993, dated 1994)
Where two headings read alike, the source gives them in different places.

Assays:
[1] = cited from earlier work
[2] = Table 1A, cited from earlier work
[3] = cited from earlier work; remark: listed apart in the source
[4] = system: Rat; settings: inhalation, Table 1B; cited from earlier work
[5] = cited from earlier work; remark: listed apart in the source
[6] = Amount of No. 6 Fuel dissolved; format: physicochemical; settings: for Amount of No. 6 Fuel Dissolved: Table 1B

Structure (SMILES) | ε, Dielectric Constant ([1]; Table 1A) | Sol. in Water ([2]; in words) | Boil Pt. ([3]; Table 1A) [°C] | other results
c1ccccc1 [Benzene] | 2.27 | sl. sol. |  | 
CCC(C)=O [Butanone] | 18.5 | sol. |  | 
S=C=S [Carbon disulfide] | 2.64 |  | 46 | 
ClC(Cl)(Cl)Cl [Carbon tetrachloride] | 2.24 | Vsl. sol. | 76 | ε, Dielectric Constant ([1]; -20° C., Table 1B): 2.238; LC50(ihl) -Rat [4]: 4,000 ppm; Boil Pt. ([3]; Table 1B): 76 °C
ClC(Cl)Cl [Chloroform] | 4.81 | Vsl. sol. | 60 | ε, Dielectric Constant ([1]; -20° C., Table 1B): 4.80; LC50(ihl) -Rat [4]: 8,000 ppm; Boil Pt. ([3]; Table 1B): 60 °C
C1=CCCCC1 [Cyclohexene] | 2.20 | sl. sol. | 82 | 
C1CCCC1 [Cyclopentane] | 1.965 | sl. sol. | 49 | 
C1=CCCC1 [Cyclopentene] | 2.20 |  | < 49 | 
CCOC(C)=O [Ethyl acetate] | 6.02 | sl. sol. | 77 | ε, Dielectric Constant ([1]; -20° C., Table 1B): 6.02; LC50(ihl) -Rat [4]: 1,600 ppm; Boil Pt. ([3]; Table 1B): 77 °C; Hazards, Comments ([5]; Table 1A, code numbers): 44; Amount of No. 6 Fuel Dissolved [6]: 31.71%
C=CC(=O)OCC [Ethyl acrylate] |  |  | 99 | 
CCOCC [Ethyl ether] | 4.34 |  | 34.6 | Sol. in Water [2]: 7.5 g/100 g
CCSC [Ethyl methyl sulfide] | ~5.72 | V. sl. sol. | 66 | 
CCSCC [Ethyl sulfide] | 5.72 | V. sl. sol. | 91 | 
FC(F)(Cl)C(F)(Cl)Cl [FREON ®, 1,1,2-trichloro-1,2,2-trifluoroethane] |  | insol. | 50 | Boil Pt. ([3]; Table 1B): 50 °C; Amount of No. 6 Fuel Dissolved [6]: 41.01%
c1ccoc1 [Furan] |  | sl. sol. | 32 | 
C=CCCCCC [Heptene-1] | ca. 2.05 | ca. sl. sol. | 93 | 
CCCCCC [Hexane, n-hexane] | 1.89 | insol. |  | adverse effects on absorption through the skin ([5]; nervous system): can be absorbed through the skin causing adverse effects to the nervous system, including a lack of feeling in the extremities and dizziness; solubility of No. 6 oil, in words ([6]; compared with hexane/methyl tertiary-butyl ether (80:20 v/v)): much less soluble in hexane
C=CCCCC [Hexene-1] | ca. 2.05 | ca. sl. sol. | 63 | 
ClCCl [Methyl chloride] |  |  |  | Boil Pt. ([3]; Table 1B): 40 °C
CC1CCCC1 [Methyl cyclopentane] |  | V. sl. sol. | 72 | 
CSC [Methyl sulfide] | 6.2 | sl. sol. | 37 | ε, Dielectric Constant ([1]; -20° C., Table 1B): 6.2; Boil Pt. ([3]; Table 1B): 37 °C
COC(C)(C)C [Methyl t-Butyl ether, methyl tertiary-butyl ether] | ca. 4.00 | sl. sol. | 55 | ε, Dielectric Constant ([1]; -20° C., Table 1B): 4.0; Boil Pt. ([3]; Table 1B): 55 °C; Amount of No. 6 Fuel Dissolved [6]: 99.74%
ClCCl [Methylene Chloride] | 9.08 |  | 40.2 | 
C=CCCC [Pentene-1] | 2.10 |  | 37 | Sol. in Water [2]: 0.04%
c1ccsc1 [Thiophene] | 2.76 | sl. sol. | 83 | 
C=COC(C)=O [Vinyl acetate] |  | sl. sol. | 72 | 
C=COC=C [Vinyl ether] | 3.94 | sl. sol. | 28 | 
CO [methyl alcohol] |  |  |  | dielectric constant ε ([1]; alcohols): 31
